How the values were obtained:
[1] = target: T1, hPPARβ (Homo sapiens, UniProt Q03181); assay: Transient transfection assay in HepG2 cells, Gal4-hPPARβ chimeric receptor, luciferase reporter; type: cell-based; conditions: Hep G2-hBeta EC50, 24 hours incubation; read-out: EC50β nM (Group)
T1 sequence (Q03181 171-441 limits assumed): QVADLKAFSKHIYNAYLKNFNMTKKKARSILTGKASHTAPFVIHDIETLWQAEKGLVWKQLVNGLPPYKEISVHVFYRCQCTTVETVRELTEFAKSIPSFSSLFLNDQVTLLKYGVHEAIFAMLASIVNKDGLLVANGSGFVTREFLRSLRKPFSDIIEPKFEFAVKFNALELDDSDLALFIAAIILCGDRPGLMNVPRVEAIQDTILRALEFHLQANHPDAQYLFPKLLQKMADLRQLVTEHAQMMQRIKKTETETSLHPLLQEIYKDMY
Method: 1. Test A. Transient Transfections Assay using the HepG2 Hepatoma Cell Line.
HepG2 cells were transiently transfected with an expression plasmids encoding hPPARα, hPPARβ or mPPARγ chimeric receptors and a reporter containing the yeast upstream activating sequence (UAS) upstream of the viral E1B promoter controlling a luciferase reporter gene. In addition, the plasmid pRSVβ-gal was used to control for transfection efficiency. HepG2 cells were grown in DMEM supplemented with 10% FBS and 1 μM non-essential amino acid. On the first day, cells were split into 100 mm dishes at 2.5×10^6/dish and incubated overnight at 37° C./5% CO2. On the second day the cells were transiently transfected with plasmid DNA encoding a chimeric receptor, the luciferase reporter gene; and β-gal. For each 100 mm dish, 15 μg of lucifease reporter (PG5E1b) DNA, 15 μg of Gal4-PPAR chimeric receptor DNA, and 1.5 μg of β-gal plasmid DNA were mixed with 1.4 ml of opti-MEM in the tube. 28 μl of LipoFectamine-2000 reagent was added to 1.4 ml of opti-MEM in the tube, and incubate for 5 min at RT. The diluted Lipofectamine-2000 reagent was combined with the DNA mixture, and incubate for 20 min at RT. After fresh medium was added to each 100 mm dish of cells, 2.8 ml of Lipofectamine2000-DNA mixture was added dropwise to the 100 mm dish containing 14 ml of medium, and incubate 37° C. overnight. On day three cells were trypsinized off the 100 mm dishes and re-plated on 96 well plates. Cells were plated at 2.5×10^4 cells per well in 150 μl of media and 50 μl of compound diluted by media was added. The test compound added were in the range from 50 μM to 50 pM. After addition of compounds, the plates were incubated at 37° C. for 24 hours. Subsequently cells were washed with once with 100 μl of PBS, lysed, and processed for measuring luciferase and β-gal activity using Dual-Light luciferase kit from Tropix ®, according to the manufacturer's recommendations, on an EG&G Bethold MicroLumat LB96P luminometer. EC50 values were obtained using the GraphPad Prism™ program.

SMILES	melting point	EC50 [1]
O=C(O)COc1ccc(SCc2ccc(Cc3ccc(C(F)(F)F)cc3)cc2)c2c1CCC2 [Example 40, {7-[4-(4-trifluoromethyl-benzyl)-benzylsulfanyl]-indan-4-yloxy}-acetic acid]	–	500 to 1000 nM
Cc1cc(SCc2ccc(Oc3ccccc3)cc2)ccc1OCC(=O)O [Example 47, [2-Methyl-4-(4-phenoxy-benzylsulfanyl)-phenoxy]-acetic acid]	–	> 5000 nM
COc1cc(OCC(=O)O)c(C)cc1[S+]([O-])Cc1ccc(-c2ccc(C(F)(F)F)cc2)cc1 (stereo not drawn) [Example 51, [5-Methoxy-2-methyl-4-(4′-trifluoromethyl-biphenyl-4-ylmethanesulfinyl)-phenoxy]-acetic acid]	–	2000 to 5000 nM
O=C(O)COc1ccc(SCc2ccc(-c3ccc(C(F)(F)F)cn3)cc2)c2c1CCCO2 [Example 86, {8-[4-(5-Trifluoromethyl-pyridine-2-yl)-benzylsulfanyl]-chroman-5-yloxy}-acetic acid]	178 to 179 °C	–
O=C(O)COc1ccc(SCc2cc(-c3ccc(Cl)cc3)on2)c2c1CCCO2 [Example 95, {8-[5-(4-Chloro-phenyl)-isoxazol-3-ylmethylsulfanyl]-chroman-5-yloxy}-acetic acid]	181 to 183 °C	–
Cc1cc(SCc2cc(-c3ccc(Cl)cc3)on2)ccc1OCC(=O)O [Example 96, {4-[5-(4-Chloro-phenyl)-isoxazol-3-ylmethylsulfanyl]-2-methyl-phenoxy}-acetic acid]	152 to 153 °C	–
O=C(O)COc1ccc(SCc2cc(-c3ccc(C(F)(F)F)cc3)on2)c2c1CCCC2 [Example 102, {4-[5-(4-trifluoromethyl-phenyl)-isoxazol-3-ylmethylsulfanyl]-5,6,7,8-tetrahydro-naphthalen-1-yloxy}-acetic acid]	167 to 170 °C	–

The next lines start with the values.

melting point	EC50 [1]	SMILES
138 °C	–	Cc1cc(SCc2ccc(-c3ccccc3)cc2)ccc1OCC(=O)O [Example 2, [4-(Biphenyl-4-ylmethylsulfanyl)-2-methyl-phenoxy]-acetic acid]
120 to 121 °C	–	Cc1cc(SCc2ccc(OCc3ccccc3)cc2)ccc1OCC(=O)O [Example 13, [4-(4-Benzyloxy-benzylsulfanyl)-2-methyl-phenoxy]-acetic acid]
243 to 245 °C	–	Cc1cc(/C=C/c2ccc(-c3ccc(C(F)(F)F)cc3)cc2)ccc1OCC(=O)O [Example 24, {2-Methyl-4-[2-(4′-trifluoromethyl-biphenyl-4-yl)-vinyl]-phenoxy}-acetic acid]
–	< 300 nM	Cc1cc(SCc2ccc(-c3ccc(C(F)(F)F)cn3)cc2)c(Cl)cc1OCC(=O)O [Example 37, {5-Chloro-2-methyl-4-[4-(5-trifluoromethyl-pyridin-2-yl)-benzylsulfanyl]-phenoxy}-acetic acid]
–	< 300 nM	COc1cc(OCC(=O)O)c(C)cc1SCc1ccc(-c2ccc(C(F)(F)F)cc2)cc1C [Example 39, [5-Methoxy-2-methyl-4-(3-methyl-4′-trifluoromethyl-biphenyl-4-ylmethylsulfanyl)-phenoxy]-acetic acid]
–	2000 to 5000 nM	COc1cc(OCC(=O)O)c(C)cc1S(=O)(=O)Cc1ccc(-c2ccc(C(F)(F)F)cc2)cc1 [Example 50, [5-Methoxy-2-methyl-4-(4′-trifluoromethyl-biphenyl-4-ylmethanesulfonyl)-phenoxy]-acetic acid]
–	300 to 500 nM	COc1cc(OCC(=O)O)c(C)cc1SCCc1cn(Cc2ccc(C(F)(F)F)cc2)c2ccccc12 [Example 54, (5-Methoxy-2-methyl-4-{2-[1-(4-trifluoromethyl-benzyl)-1H-indol-3-yl]-ethylsulfanyl}-phenoxy)-acetic acid]
171 to 173 °C	–	O=C(O)COc1ccc(SCc2cc(-c3ccc(C(F)(F)F)cc3)on2)c2c1CCCO2 [Example 94, {8-[5-(4-Trifluoromethyl-phenyl)-isoxazol-3-ylmethylsulfanyl]-chroman-5-yloxy}-acetic acid]

Source: patent US6964983B2, “Compounds that modulate PPAR activity and methods for their preparation” (Warner-Lambert Company, LLC, priority 2002, dated 2005)
